From patent US20260216189A1, “TOPICAL COMPOSITIONS CONTAINING A JANUS KINASE INHIBITOR” (Zoetis Services LLC, priority 2023, published 2026)

Legend:
[1] = subsequent study, 2-3 sprays of topical solution, skin concentrations; type: in vivo; details: 2.5-10 mg/mL, about 0.25 to 0.5 mL topical
Protocol: In a subsequent study, animals received 2.5-10 mg/mL oclacitinib by applying 2-3 sprays for a total of about 0.25 to 0.5 mL of the topical solution to an area of skin.

[2] = in vivo, po, 0.4 mg/kg
Protocol: (§1) The pharmacokinetics and pharmacodynamics (PK/PD) of orally dosed oclacitinib (0.4-0.6 mg/kg) is well understood. […] An oral 14C-oclacitinib study determined that a single 0.4 mg/kg dose achieved a mean skin concentration of 212 ng equivalents/gram of tissue. A house dust model (HDM) was used to assess the efficacy of the compositions described herein. The topical HDM challenge results in excoriation lesions and erythema at the challenge site. In one study, placebo (saline, TO1), triamcinolone acetonide 0.15 mg/mL (T02), oclacitinib maleate 7.5 mg/mL (T03) and oclacitinib maleate 10 mg/mL (T04) were topically administered to beagle dogs (8/group). The weights of drug in T02-T04 were freebase amounts.
Systemic plasma concentrations and skin concentrations 24 hours post dose were assessed for multiple compositions of the invention in a number of PK studies; including compositions with oclacitinib or oclacitinib maleate with API concentrations ranging from 1-10 mg/mL oclacitinib. […] The oral 14C-oclacitinib study determined that a 0.4 mg/kg oral dose of oclacitinib achieved a mean skin concentration of 212 ng equivalents/gram. […]

[3] = PK studies of topical compositions: systemic plasma and skin concentrations, single and repeat dose; type: in vivo
Protocol: Systemic plasma concentrations and skin concentrations 24 hours post dose were assessed for multiple compositions of the invention in a number of PK studies; including compositions with oclacitinib or oclacitinib maleate with API concentrations ranging from 1-10 mg/mL oclacitinib. The compositions tested to date have shown prolonged absorption that lasts at least 72 hours following a single dose and low topical bioavailability of less than 10% with single dose skin concentrations at least 20-80 times that observed in the oral single dose ^14C study. The oral 14C-oclacitinib study determined that a 0.4 mg/kg oral dose of oclacitinib achieved a mean skin concentration of 212 ng equivalents/gram. Permeation and penetration studies with compositions comprising a glycol, glycol ether and DMSO achieved single dose skin concentrations greater (28.4-54.5 μg/g) than that concentration achieved following oral administration, as mentioned above, and well above the reported oclacitinib IC50's for pro-inflammatory and pruritogenic cytokines.
The rate and amount of topical absorption can be a non-linear function of the API concentration of the composition. The topical compositions of the invention minimized systemic plasma oclacitinib concentrations while maintaining high skin concentrations. […] The studies to date and formulations described herein have shown that the compositions deliver skin concentrations greater than those observed with oral dosing. […] The topical single dose bioavailability is low, less than 5% when administered to an area that limits oral exposure from licking. […] Formulations with a lower oclacitinib concentration had lower systemic exposures.

IL-31 induced itch = details: orally dosed oclacitinib (0.4-0.6 mg/kg); cited from earlier work
[4] = test system: HDM challenge site (excoriation lesions and erythema); assay: house dust model (HDM) challenge, topical treatment of beagle dogs; colorimeter erythema and lesion scores; type: in vivo; details: for Post challenge total lesion scores compared to the saline group: treatment groups vs saline group
Protocol: as §1
Daily assessments were observed through Day 41. Colorimeter measurements provided quantified erythema scores. […] Lesions were observed and scored based on severity of erythema, papules and excoriations at the challenge site.

Compound | skin concentrations of oclacitinib [1] | mean skin concentration [2] | 24-hour post dose skin concentrations following repeat dosing, fold higher ([3]; across study comparisons, repeat vs single dosing) | accumulation in skin and plasma ([3]; following multiple daily administrations) | systemic levels ([3]; following multiple daily doses) | bioavailability ([3]; plasma, topical, administered to an area that limits oral exposure from licking) | systemic plasma concentrations: absorption and terminal phase ([3]; single and repeat dose studies) | PK following topical administration, maleate vs freebase formulations ([3]; topical) | Plasma concentrations effective in reducing IL-31 induced itch (IL-31 induced itch) | erythema reduction compared to saline (colorimeter) ([4]; 7.5 mg/mL topical, Day 36 (P=0.0993)) | area under the curve (AUC) of total lesion scores compared to saline ([4]; 10 mg/mL (p<0.08)) | erythema reduction compared to saline (colorimeter) ([4]; 10 mg/mL topical, Days 27, 28, and 36 (p≤0.0948)) | lesion score reduction after the dosing period ended, versus other treatment groups ([4]; after the 28 day dosing period, observation through Day 41) | erythema reduction compared to saline (colorimeter) ([4]; both concentrations (7.5 and 10 mg/mL), topical once daily, after approximately 1 month of dosing) | Post challenge total lesion scores compared to the saline group [4] | lesion score reduction compared to saline ([4]; spray 7.5 mg/mL, Days 4, 7, 11, 26, 27, 30, and 39) | lesion score reduction compared to saline ([4]; spray 10 mg/mL, Days 7-11, 26, 30, and 32-34) | lesion score reduction compared to saline ([4]; triamcinolone 0.15 mg/mL, Day 35) | lesion score reduction compared to saline ([4]; triamcinolone 0.15 mg/mL, Days 4, 8, 10, 11) | erythema reduction compared to saline (colorimeter) ([4]; triamcinolone spray 0.15 mg/mL, Days 12, 14, 19, 24-26, 28-33, and 35-41 (P≤0.0912))
CNS(=O)(=O)C[C@H]1CC[C@H](N(C)c2ncnc3[nH]ccc23)CC1 [oclacitinib, N-methyl-1-{trans-4-[methyl (7H-pyrrolo[2,3-d]pyrimidin-4-yl)amino]cyclohexyl}-methanesulfonamide] | acceptable skin concentrations | 212 ng equivalents/gram | at least 5 times | Accumulation in skin and plasma was observed | at a concentration that has shown efficacy in reducing IL-31 induced itch | < 5% | prolonged absorption with the terminal phase not evident 10 days post dose | comparable | greater than 12 ng/ml | significantly greater reduction in erythema | significantly lower | significantly greater reduction | continued to demonstrate significant reduction in lesion scores | significant erythema reductions | significantly higher | significantly greater lesion score reductions | significantly greater lesion score reductions | – | – | –
CC1(C)O[C@@H]2C[C@H]3[C@@H]4CCC5=CC(=O)C=C[C@]5(C)[C@@]4(F)[C@@H](O)C[C@]3(C)[C@]2(C(=O)CO)O1 [triamcinolone, triamcinolone acetonide] | – | – | – | – | – | – | – | – | – | – | – | – | – | – | significantly higher | – | – | significantly lesser reduction | significantly greater reductions in lesion scores | significantly less reduction in erythema
oclacitinib maleate | – | – | – | – | – | – | – | comparable | – | – | – | – | – | – | – | – | – | – | – | –
